# Measurements reported in patent US20210161993A1, “Method for accelerated healing of burn wounds” (PVP LABS PTE. LTD., priority 2018, published 2021).
# Peptide text beside a SMILES is read from it.
# Assays:
# II-IIIA degree burns [1] = assay: Burn model in rats, hexapeptide as topical 0.02-0.5% solution (Example 3); assay type: in vivo, outbred male rats; conditions: for Day on which burn wound hyperaemia score reached 0: after thermal injury; for Day on which burn wound hyperaemia score reached 0 / Burn wound oedema score: topical; for Burn wound oedema score: score 0-3
# Procedure: The efficacy of topical administration of tyrosyl-D-alanyl-glycyl-phenylalanyl-leucyl-arginine in the therapy of thermal burns was evaluated on models of II-IIIA degree burns in 30 outbred male rats. The animals were kept in a vivarium (ambient temperature 19-23° C.) according to Good Laboratory Practices of the Eurasian Economic Union and the applicable guidelines (Reference).
# Flat-bottom glass containers of an appropriate diameter filled with liquid paraffin to ⅔ of their volume were used as the thermal agent. The containers were heated on a water bath before application to the skin of the rats, which were randomized to three groups (n=10 in each group): the control group and two experimental groups. Another tissue repair stimulator, dexpanthenol (5% topical ointment), was used as the comparator. All the rats received burns with a standardized area of ≈40 cm^2. Within 20 min. after inflicting the thermal injury, control group animals were treated by applying an aseptic dressing followed by therapy with Iodopiron and Levomecol (group I); animals in the experimental groups additionally received dexpanthenol (group II) or 0.02-0.5% solution of hexapeptide tyrosyl-D-alanyl-glycyl-phenylalanyl-leucyl-arginine (group III consisting of 5 animals that received 0.02% solution and 5 animals that received 0.5% solution).
# The experiment involved evaluating the general condition of the animals and performing gross examination to evaluate the severity of tissue oedema in the burn region, hyperaemia, infiltration, appearance of wound discharge and wound epithelialization. These signs were scored as follows: maximum severity of a sign corresponded to a score of 3 points, and absence of a sign to a score of 0. Objective assessment of the healing process was based on planimetric measurements. All the observations were performed on days 1, 3, 5, 7 and 10 of the experiment.
# The healing rate was determined using the formula V=(S1−S2)/t, where S1=wound area during the previous measurement, S2=wound area during the next measurement, t=number of days between the previous and the next measurement.
# The experiment also included an evaluation of the white blood cell population as a ratio of the total number of lymphocytes to segmented cells in venous blood.
# burn injury = conditions: intraperitoneal; during 14 days after burn injury; Dalargin 0.5 mg/kg; control 60%; cited from earlier work
# 3rd degree burn = conditions: 0.3 mg subcutaneously; cited from earlier work
# neutrophils = conditions: cited from earlier work
# linear wounds = assay: Linear (planar) skin wound model in rats (Example 4); assay type: in vivo, white male Wistar rats
# Procedure: The study was performed in white male Wistar rats. All the animals were randomized to three groups of 13 rats each: (I) control Group (untreated), (II) comparator Group (Bepanthen topical cream with 5% dexpanthenol) and (III) experimental Group (hexapeptide tyrosyl-D-alanyl-glycyl-phenylalanyl-leucyl-arginine). The Group III consisted of 5 animals that received 0.02% solution and 5 animals that received 0.5% solution.
# Linear wounds were modeled by an approximately 4-cm-long longitudinal incision in the skin and subcutaneous fat along the midline of the back. After making the incision, the edges of the wound were brought together, and three sutures were applied at an equal distance. The animals received the study drugs starting on the day of the operation; the control Group received a placebo. In each group, 3 rats were intended for a tensometric study, which required euthanasia on day 7 of the experiment. Samples for a histological evaluation were collected immediately after complete healing (on days 25-26).
# The study drugs were applied once daily, every day, for 20 days. The wound healing effect was evaluated based on the clinical course (presence of purulent discharge, dynamics of wound edge attachment) on days 4, 7, 15 and 20 of the experiment.
# II-IIIA degree burns [2] = assay: Burn model in rats, hexapeptide as 0.02% and 0.5% gel (Example 5); assay type: in vivo, outbred male rats; conditions: for Average healing rate of burn wounds, difference to control Group I: FIG. 4; for Burn area (planimetry), dynamics of burn wound healing: vs control and Bepanthen
# Procedure: The efficacy of topical administration of hexapeptide tyrosyl-D-alanyl-glycyl-phenylalanyl-leucyl-arginine in the therapy of thermal burns was evaluated on models of II-IIIA degree burns in 40 outbred male rats. The animals were kept in a vivarium according to Good Laboratory Practices of the Eurasian Economic Union and the applicable guidelines (Reference). Flat-bottom glass containers of an appropriate diameter filled with liquid paraffin to ⅔ of their volume were used as a thermal agent. The animals were randomized to four groups (n=10 in each group): Group I was the control group. A popular tissue repair product, Bepanthen (topical cream with 5% dexpanthenol), was used as the comparator. Burn area was standardized at Æ40 cm^2.
# An aseptic dressing applied within the first 20 minutes after the burn, followed by therapy with Iodopiron and Levomecol, was used for control Group I. Group II was treated with Bepanthen. Group III received hexapeptide tyrosyl-D-alanyl-glycyl-phenylalanyl-leucyl-arginine as 0.02% topical gel, while Group IV received hexapeptide tyrosyl-D-alanyl-glycyl-phenylalanyl-leucyl-arginine as 0.5% topical gel.
# In addition to monitoring the general condition of the animals on days 1, 3, 5, 7 and 10 of the experiment, the healing process was evaluated planimetrically. The healing rate was determined using the formula V=(S1-S2)/t, where S1=wound area during the previous measurement, S2=wound area during the next measurement, t=number of days between the previous and the next measurement.
Molecule,Day on which burn wound hyperaemia score reached 0 (II-IIIA degree burns [1]) [days],Burn wound oedema score (II-IIIA degree burns [1]; day 1 after thermal injury) [points],Burn wound oedema score (II-IIIA degree burns [1]; day 5 after thermal injury) [points],Burn wound oedema score (II-IIIA degree burns [1]; day 7 after thermal injury) [points],Mortality rate (burn injury) [%],Skin repair and productive inflammation (3rd degree burn),Effect on activated neutrophils and NADPHase activity (neutrophils; blood of healthy humans (n=27)),Effect on functional and metabolic activity of neutrophils (neutrophils; peripheral blood samples of burn patients (n=15)),Reduction of hyperaemia compared with Dexpanthenol (II-IIIA degree burns [1]; topical 0.02-0.5% solution),"Average healing rate of burn wounds, difference to control Group I (II-IIIA degree burns [1]; topical 0.02-0.5% solution, FIG. 1)","Burn area (planimetry), dynamics of burn wound healing (II-IIIA degree burns [1]; topical 0.02-0.5% solution, vs control and Dexpanthenol)","Day on which lymphocyte-neutrophil ratio returned to normal (II-IIIA degree burns [1]; venous blood, topical 0.02-0.5% solution, FIG. 2) [days]","Tensiometric evaluation, superiority relative to control Group I (linear wounds; day 7 of the experiment)","Healing of the linear wound (visual inspection) (linear wounds; once daily for 20 days, relative to control and comparator, FIG. 3)",Histological evaluation of the scar (linear wounds; samples collected after complete healing (days 25-26)),"Average healing rate of burn wounds, difference to control Group I (II-IIIA degree burns [2]; 0.02% topical gel (Group III))","Burn area (planimetry), dynamics of burn wound healing (II-IIIA degree burns [2]; 0.02% topical gel (Group III))","Average healing rate of burn wounds, difference to control Group I (II-IIIA degree burns [2]; 0.5% topical gel (Group IV))","Burn area (planimetry), dynamics of burn wound healing (II-IIIA degree burns [2]; 0.5% topical gel (Group IV))","Reduction of burn area, 0.5% gel (Group IV) relative to 0.02% gel (Group III) (II-IIIA degree burns [2]; not statistically significant)"
"CC(C)(CO)[C@@H](O)C(=O)NCCCO [Dexpanthenol, dexpanthenol]",7,2.0±0.5,0.7±0.5,0.3±0.3,–,–,–,–,–,–,–,–,–,–,–,–,–,–,–,–
CC(C)C[C@H](NC(=O)[C@H](Cc1ccccc1)NC(=O)CNC(=O)[C@@H](C)NC(=O)[C@@H](N)Cc1ccc(O)cc1)C(=O)N[C@@H](CCCNC(=N)N)C(=O)O [tyrosyl-D-alanyl-glycyl-phenylalanyl-leucyl-arginine] (HELM PEPTIDE1{Y.[dA].G.F.L.R}$$$$V2.0),5,1.0±0.4,0.3±0.2,0.0±0.0,75,significant acceleration of skin repair and reduced intensity of productive inflammation,increasing the total number of activated neutrophils and NADPHase activity,normalized elevated functional and metabolic activity of neutrophils,statistically significantly more effective,Statistically significant differences,significant reduction of burn area already on day 3,7,over than twofold,more rapid healing of the linear wound,fibrous components were dominant in scar tissue relative to cellular components,Statistically significant differences,pronounced statistically significant positive dynamics of burn wound healing,Statistically significant differences,pronounced statistically significant positive dynamics of burn wound healing,numerically greater reduction of burn area
delta sleep-inducing peptide [DSIP],–,–,–,–,20,–,–,–,–,–,–,–,–,–,–,–,–,–,–,–
